This assay deals with termites. The assay can be described thus: Two-way choice bioassay, filter paper consumption by termite workers. Format: in vivo, Reticulitermes flavipes. Conditions: FIG. 1A, FIG. 1B; series of experiments and validated tests. The method, then: Two-way choice bioassays are conducted with the granule formulation containing 1% 1-MCP in weight boats. Test materials are placed in weigh boats to prevent physical contact of termite workers with test material. Filter papers associated with 1-MCP are used to qualify consumption. Bioassay arenas are placed inside sealed plastic containers with open moisture sources to maintain high humidity for releasing 1-MCP from the granule formulation. […] The experiment results are also shown in Table 1, where negative control uses granules having 22% alpha-cyclodextrin+78% sodium bentonite.

Consider one molecule from US10645922B2, “Methods and compositions for pest bait” (Dow AgroSciences LLC, priority 2015, dated 2020).

“Also recorded” adds a separate entry of the source.

Regarding `CC1=CC1` [1-MCP, 1-methylcyclopropene], the “Filter paper consumption in presence of 1-MCP (in words)” value was “Significant higher consumption; also recorded: significantly increase”.
